# Molecular target: T1, N-type calcium channel (NTCC) (Homo sapiens, UniProt Q00975)
# T1 construct: endogenous in cells; host or cells: differentiated IMR32 cells (ATCC)
# Assay: FLIPR calcium mobilization assay for N-type calcium channel (differentiated IMR32 cells)
# Format: cell-based
# Settings: N-type calcium channel blockers, calcium mobilization in vitro assay
# Description: Cell maintenance and differentiation. Unless noted otherwise, cell culture reagents were purchased from Mediatech of Herndon, Md. IMR32 cells (American Type Culture Collection, ATCC, Manassas, Va.) were routinely cultured in growth medium consisting of minimum essential medium containing 10% fetal bovine serum (FBS, Hyclone, Logan, Utah), 100 U/mL penicillin, 100 μg/mL streptomycin, 2 mM L-glutamine, 1 mM sodium pyruvate, and 1×MEM non-essential amino acids. 80-90% confluent flasks of cells were differentiated using the following differentiation medium: Growth medium plus 1 mM dibutyryl cyclic AMP (Sigma, St. Louis, Mo.), and 2.5 μM bromodeoxyuridine (Sigma). Cells were differentiated for 8 days by replacing differentiation medium every 2-3 days.
# FLIPR Calcium Mobilization Assay for N-type Calcium Channel.
# One day prior to performing this assay, differentiated IMR32 cells were treated with 1× CellStripper, and seeded on poly-D-lysine-coated 96-well clear-bottom black plates (Becton Dickinson, Franklin Lakes, N.J.) at 200,000 cells/well. On the day of the assay, the cell plates were washed with IMR32 buffer (127 mM NaCl, 1 mM KCl, 2 mM MgCl2, 700 μM NaH2PO4, 5 mM CaCl2, 5 mM NaHCO3, 8 mM HEPES, 10 mM glucose, pH 7.4), then pre-stimulated with KCl and loaded as follows: […] of IMR32 buffer, 0.05 mL of each compound tested diluted in IMR32 buffer containing 20 μM nitrendipine (Sigma), and 0.1 mL KCl dissolved in IMR32 buffer, plus Fluo-4 were added (3 μM final concentration, Molecular Probes, Eugene, Oreg.). Final test compound concentrations ranged from about 846 pM to about 17 μM, final nitrendipine concentration was 5 μM, and final KCl concentration was 90 mM. After 1 hour, the cells were washed twice with 0.05 mL of each compound tested in nitrendipine-containing IMR32 buffer (no KCl or Fluo-4), and then replaced with 0.1 mL of each compound tested in nitrendipine-containing IMR32 buffer. Plates were then transferred to a Fluorimetric Imaging Plate Reader (FLIPR^96, Molecular Devices, Inc., Sunnyvale, Calif.) for assay. The FLIPR measured basal Fluo-4 fluorescence for 315 seconds (i.e., 5 minutes and 15 seconds), then added 0.1 mL KCl agonist dissolved in IMR32 buffer and measured fluorescence for another 45 seconds. Final test compound concentrations on the cells after FLIPR read ranged from about 846 pM to about 17 μM, final nitrendipine concentration was 5 μM, and final KCl concentration was 90 mM. Data were collected over the entire time course and analyzed using Excel, Graph Pad Prism (version 3.02, Graph Pad, San Diego, Calif.), or an in-house non-linear regression analysis software.
# T1 sequence (Q00975 whole entry): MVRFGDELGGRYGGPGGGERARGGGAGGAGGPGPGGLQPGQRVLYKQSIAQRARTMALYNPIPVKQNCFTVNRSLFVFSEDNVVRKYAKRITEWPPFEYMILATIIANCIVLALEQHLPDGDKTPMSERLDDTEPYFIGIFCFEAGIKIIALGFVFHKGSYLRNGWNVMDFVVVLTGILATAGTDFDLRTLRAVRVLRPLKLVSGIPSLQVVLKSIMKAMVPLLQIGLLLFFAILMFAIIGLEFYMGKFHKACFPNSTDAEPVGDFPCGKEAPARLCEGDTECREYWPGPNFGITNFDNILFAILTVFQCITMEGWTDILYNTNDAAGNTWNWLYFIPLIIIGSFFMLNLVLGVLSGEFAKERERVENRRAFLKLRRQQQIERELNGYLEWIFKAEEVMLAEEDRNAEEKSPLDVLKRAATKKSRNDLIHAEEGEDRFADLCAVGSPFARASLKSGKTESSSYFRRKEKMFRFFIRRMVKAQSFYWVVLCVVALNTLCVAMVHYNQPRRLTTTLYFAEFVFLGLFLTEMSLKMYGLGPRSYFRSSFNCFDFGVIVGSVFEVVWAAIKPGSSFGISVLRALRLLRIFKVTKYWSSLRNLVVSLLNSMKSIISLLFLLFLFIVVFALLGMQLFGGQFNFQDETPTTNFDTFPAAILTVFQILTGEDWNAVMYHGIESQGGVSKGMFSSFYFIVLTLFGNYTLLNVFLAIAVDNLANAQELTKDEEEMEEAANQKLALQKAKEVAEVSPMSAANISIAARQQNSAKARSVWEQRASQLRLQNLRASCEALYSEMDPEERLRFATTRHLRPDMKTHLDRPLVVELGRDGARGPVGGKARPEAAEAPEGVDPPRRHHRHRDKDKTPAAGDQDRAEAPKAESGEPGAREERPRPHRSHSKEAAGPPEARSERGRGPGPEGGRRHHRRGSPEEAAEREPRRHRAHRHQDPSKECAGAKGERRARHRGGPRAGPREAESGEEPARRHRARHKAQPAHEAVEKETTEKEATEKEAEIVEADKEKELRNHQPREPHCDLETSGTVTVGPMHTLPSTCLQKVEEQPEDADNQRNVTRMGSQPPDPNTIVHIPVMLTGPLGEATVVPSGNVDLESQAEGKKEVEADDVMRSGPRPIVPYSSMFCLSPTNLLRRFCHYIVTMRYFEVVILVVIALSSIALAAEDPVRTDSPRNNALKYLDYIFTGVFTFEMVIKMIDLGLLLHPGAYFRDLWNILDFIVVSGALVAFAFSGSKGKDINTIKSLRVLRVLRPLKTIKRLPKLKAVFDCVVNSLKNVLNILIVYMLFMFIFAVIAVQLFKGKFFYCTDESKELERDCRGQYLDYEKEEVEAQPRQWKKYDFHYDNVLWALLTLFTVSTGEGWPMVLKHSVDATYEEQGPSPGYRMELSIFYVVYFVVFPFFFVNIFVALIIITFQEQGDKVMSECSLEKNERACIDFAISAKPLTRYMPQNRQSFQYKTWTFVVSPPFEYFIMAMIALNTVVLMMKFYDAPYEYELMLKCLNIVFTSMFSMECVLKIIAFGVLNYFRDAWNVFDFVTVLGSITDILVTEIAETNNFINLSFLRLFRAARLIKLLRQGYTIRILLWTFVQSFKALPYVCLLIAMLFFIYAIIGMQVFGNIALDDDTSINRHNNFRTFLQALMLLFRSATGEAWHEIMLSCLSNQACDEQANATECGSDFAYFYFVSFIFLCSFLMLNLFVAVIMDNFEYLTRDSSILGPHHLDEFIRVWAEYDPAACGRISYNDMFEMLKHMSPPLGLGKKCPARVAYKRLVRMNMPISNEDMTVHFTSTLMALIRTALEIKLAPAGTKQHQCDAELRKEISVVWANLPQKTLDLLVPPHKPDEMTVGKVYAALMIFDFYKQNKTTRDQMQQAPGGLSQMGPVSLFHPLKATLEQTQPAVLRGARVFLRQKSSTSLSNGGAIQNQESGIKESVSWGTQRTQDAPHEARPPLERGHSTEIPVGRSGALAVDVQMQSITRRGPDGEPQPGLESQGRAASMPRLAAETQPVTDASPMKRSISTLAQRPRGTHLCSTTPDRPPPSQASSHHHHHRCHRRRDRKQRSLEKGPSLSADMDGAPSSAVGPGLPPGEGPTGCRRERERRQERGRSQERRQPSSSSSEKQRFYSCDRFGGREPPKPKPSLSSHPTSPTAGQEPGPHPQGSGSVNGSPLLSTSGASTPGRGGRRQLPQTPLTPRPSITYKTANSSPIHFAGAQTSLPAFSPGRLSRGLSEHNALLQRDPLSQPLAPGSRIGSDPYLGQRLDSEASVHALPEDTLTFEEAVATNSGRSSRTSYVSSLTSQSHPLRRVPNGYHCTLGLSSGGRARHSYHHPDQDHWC
# T1 sequence (P54289 25-956 partner limits assumed): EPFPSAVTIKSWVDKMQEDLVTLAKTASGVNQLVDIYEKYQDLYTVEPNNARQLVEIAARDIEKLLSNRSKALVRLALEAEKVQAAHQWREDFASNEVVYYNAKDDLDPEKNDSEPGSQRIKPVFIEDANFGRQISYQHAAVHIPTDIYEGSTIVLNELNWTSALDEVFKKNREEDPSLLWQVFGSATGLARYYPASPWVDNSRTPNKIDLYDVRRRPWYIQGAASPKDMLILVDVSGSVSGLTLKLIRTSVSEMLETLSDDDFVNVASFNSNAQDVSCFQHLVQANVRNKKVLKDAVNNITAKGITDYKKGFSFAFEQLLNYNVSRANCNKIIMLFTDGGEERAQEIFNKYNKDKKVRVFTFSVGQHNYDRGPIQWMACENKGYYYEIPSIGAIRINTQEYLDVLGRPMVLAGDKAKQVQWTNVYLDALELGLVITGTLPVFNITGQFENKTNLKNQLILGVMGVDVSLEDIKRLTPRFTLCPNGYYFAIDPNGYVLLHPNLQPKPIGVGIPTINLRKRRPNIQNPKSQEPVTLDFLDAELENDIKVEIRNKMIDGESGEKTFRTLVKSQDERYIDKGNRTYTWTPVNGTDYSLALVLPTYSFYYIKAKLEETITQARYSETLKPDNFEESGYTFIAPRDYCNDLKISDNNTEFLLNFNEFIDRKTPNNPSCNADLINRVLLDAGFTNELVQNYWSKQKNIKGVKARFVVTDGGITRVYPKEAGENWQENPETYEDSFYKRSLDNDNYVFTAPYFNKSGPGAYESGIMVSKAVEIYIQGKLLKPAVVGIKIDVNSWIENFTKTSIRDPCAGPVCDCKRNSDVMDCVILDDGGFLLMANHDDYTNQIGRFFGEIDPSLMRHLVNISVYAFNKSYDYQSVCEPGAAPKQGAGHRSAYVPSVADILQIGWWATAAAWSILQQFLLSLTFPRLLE
# T1 sequence (P54289 957-1103 partner limits assumed): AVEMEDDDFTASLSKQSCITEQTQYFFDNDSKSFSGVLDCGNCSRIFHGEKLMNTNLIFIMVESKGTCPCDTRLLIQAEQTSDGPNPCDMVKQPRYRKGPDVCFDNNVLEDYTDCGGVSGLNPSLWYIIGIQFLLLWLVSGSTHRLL
# T1 sequence (P54284 whole entry partner): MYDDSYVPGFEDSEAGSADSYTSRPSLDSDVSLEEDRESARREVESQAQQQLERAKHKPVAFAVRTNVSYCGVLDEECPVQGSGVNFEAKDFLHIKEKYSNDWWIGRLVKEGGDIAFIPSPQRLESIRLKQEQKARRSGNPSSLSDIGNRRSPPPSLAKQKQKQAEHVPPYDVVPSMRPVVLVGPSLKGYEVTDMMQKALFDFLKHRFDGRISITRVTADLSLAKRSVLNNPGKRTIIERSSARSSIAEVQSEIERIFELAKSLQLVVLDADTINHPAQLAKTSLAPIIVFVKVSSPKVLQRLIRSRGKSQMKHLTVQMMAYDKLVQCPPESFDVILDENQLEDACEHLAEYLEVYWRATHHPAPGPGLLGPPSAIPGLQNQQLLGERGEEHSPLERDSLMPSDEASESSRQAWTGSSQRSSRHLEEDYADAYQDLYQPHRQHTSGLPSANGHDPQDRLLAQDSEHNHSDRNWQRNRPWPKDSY
row,IC50,Compound
1,990 nM,"O=C(NC1CC1)c1cccc(C2=CCN(S(=O)(=O)c3c(F)cc(F)cc3F)CC2)n1 [1′-(2,4,6-Trifluorobenzenesulfonyl)-1′,2′,3′,6′-tetrahydro-[2,4′]bipyridinyl-6-carboxylic acid cyclopropylamide]"
2,190 nM,"O=C(NC1CC1)c1cccc(C2=CCN(S(=O)(=O)c3ccc(Cl)cc3Cl)CC2)n1 [1′-(2,4-Dichlorobenzenesulfonyl)-1′,2′,3′,6′-tetrahydro-[2,4′]bipyridinyl-6-carboxylic acid cyclopropylamide]"
3,1460 nM,"CC(C)CS(=O)(=O)N1CC=C(c2cccc(C(=O)NC3CC3)n2)CC1 [1′-(2-Methylprop-1-ylsulfonyl)-1′,2′,3′,6′-tetrahydro-[2,4′]bipyridinyl-6-carboxylic acid cyclopropylamide]"
4,80 nM,"O=C(NC1CC1)c1cccc(C2=CCN(S(=O)(=O)c3ccccc3C(F)(F)F)CC2)n1 [1′-(2-Trifluoromethylbenzenesulfonyl)-1′,2′,3′,6′-tetrahydro-[2,4′]bipyridinyl-6-carboxylic acid cyclopropylamide]"
5,3100 nM,"O=C(NC1CC1)c1cccc(C2=CCN(S(=O)(=O)CCC(F)(F)F)CC2)n1 [1′-(3,3,3-Trifluoropropylsulfonyl)-1′,2′,3′,6′-tetrahydro-[2,4′]bipyridinyl-6-carboxylic acid cyclopropylamide]"
6,50 nM,"O=C(NC1CC1)c1cccc(C2=CCN(S(=O)(=O)c3cc(Cl)cc(Cl)c3)CC2)n1 [1′-(3,5-Dichlorobenzenesulfonyl)-1′,2′,3′,6′-tetrahydro-[2,4′]bipyridinyl-6-carboxylic acid cyclopropylamide]"
7,80 nM,"O=C(NC1CC1)c1cccc(C2=CCN(S(=O)(=O)c3cccc(Cl)c3)CC2)n1 [1′-(3-Chlorobenzenesulfonyl)-1′,2′,3′,6′-tetrahydro-[2,4′]bipyridinyl-6-carboxylic acid cyclopropylamide]"
8,770 nM,"N#Cc1cc(S(=O)(=O)N2CC=C(c3cccc(C(=O)NC4CC4)n3)CC2)ccc1F [1′-(3-Cyano-4-fluorobenzenesulfonyl)-1′,2′,3′,6′-tetrahydro-[2,4′]bipyridinyl-6-carboxylic acid cyclopropylamide]"
9,50 nM,"N#Cc1cccc(S(=O)(=O)N2CC=C(c3cccc(C(=O)NC4CC4)n3)CC2)c1 [1′-(3-Cyanobenzenesulfonyl)-1′,2′,3′,6′-tetrahydro-[2,4′]bipyridinyl-6-carboxylic acid cyclopropylamide]"
10,40 nM,"O=C(NC1CC1)c1cccc(C2=CCN(S(=O)(=O)c3cccc(OC(F)(F)F)c3)CC2)n1 [1′-(3-Trifluoromethoxybenzenesulfonyl)-1′,2′,3′,6′-tetrahydro-[2,4′]bipyridinyl-6-carboxylic acid cyclopropylamide]"
11,4240 nM,"O=S(=O)(c1cccc(C(F)(F)F)c1)N1CC=C(c2cccc(CO)n2)CC1 [1′-(3-Trifluoromethylbenzenesulfonyl)-1′,2′,3′,6′--tetrahydro-[2,4′]bipyridinyl-6-yl]methanol]"
12,30 nM,"O=C(NCC(F)(F)F)c1cccc(C2=CCN(S(=O)(=O)c3cccc(C(F)(F)F)c3)CC2)n1 [1′-(3-Trifluoromethylbenzenesulfonyl)-1′,2′,3′,6′-tetrahydro-[2,4′]-bipyridinyl-6-carboxylic acid 2,2,2-trifluoroethylamide]"
13,50 nM,"O=C(NCCC(F)(F)F)c1cccc(C2=CCN(S(=O)(=O)c3cccc(C(F)(F)F)c3)CC2)n1 [1′-(3-Trifluoromethylbenzenesulfonyl)-1′,2′,3′,6′-tetrahydro-[2,4′]-bipyridinyl-6-carboxylic acid 3,3,3-trifluoropropylamide]"
14,90 nM,"O=C(NC(CO)CO)c1cccc(C2=CCN(S(=O)(=O)c3cccc(C(F)(F)F)c3)CC2)n1 [1′-(3-Trifluoromethylbenzenesulfonyl)-1′,2′,3′,6′-tetrahydro-[2,4′]bipyridinyl-6-carboxylic acid 1,3-dihydroxyprop-2-ylamide]"
15,70 nM,"O=C(NCCO)c1cccc(C2=CCN(S(=O)(=O)c3cccc(C(F)(F)F)c3)CC2)n1 [1′-(3-Trifluoromethylbenzenesulfonyl)-1′,2′,3′,6′-tetrahydro-[2,4′]bipyridinyl-6-carboxylic acid 2-hydroxyethylamide]"
16,660 nM,"O=C(NCC(F)(F)F)c1ncccc1C1=CCN(S(=O)(=O)c2cccc(C(F)(F)F)c2)CC1 [1′-(3-Trifluoromethylbenzenesulfonyl)-1′,2′,3′,6′-tetrahydro-[3,4′]bipyridinyl-2-carboxylic acid 2,2,2-trifluoroethylamide]"
17,420 nM,"O=C(NCCC(F)(F)F)c1ncccc1C1=CCN(S(=O)(=O)c2cccc(C(F)(F)F)c2)CC1 [1′-(3-Trifluoromethylbenzenesulfonyl)-1′,2′,3′,6′-tetrahydro-[3,4′]bipyridinyl-2-carboxylic acid 3,3,3-trifluoropropylamide]"
18,140 nM,"O=C(NCC1CC1)c1ncccc1C1=CCN(S(=O)(=O)c2cccc(C(F)(F)F)c2)CC1 [1′-(3-Trifluoromethylbenzenesulfonyl)-1′,2′,3′,6′-tetrahydro-[3,4′]bipyridinyl-2-carboxylic acid cyclopropylmethylamide]"
19,> 20000 nM,"COC(=O)c1ncccc1C1=CCN(S(=O)(=O)c2cccc(C(F)(F)F)c2)CC1 [1′-(3-Trifluoromethylbenzenesulfonyl)-1′,2′,3′,6′-tetrahydro-[3,4′]bipyridinyl-2-carboxylic acid methyl ester]"
20,670 nM,"O=C(NC1CC1)c1cccc(C2=CCN(S(=O)(=O)Cc3cccc(C(F)(F)F)c3)CC2)n1 [1′-(3-Trifluoromethylbenzylsulfonyl)-1′,2′,3′,6′-tetrahydro-[2,4′]bipyridinyl-6-carboxylic acid cyclopropylamide]"
21,350 nM,"O=C(NC1CC1)c1cccc(C2=CCN(S(=O)(=O)c3ccc(F)cc3)CC2)n1 [1′-(4-Fluorobenzenesulfonyl)-1′,2′,3′,6′-tetrahydro-[2,4′]bipyridinyl-6-carboxylic acid cyclopropylamide]"
22,430 nM,"O=C(NCC(F)(F)F)c1cccc(C2=CCN(S(=O)(=O)c3ccc(OC(F)(F)F)cc3)CC2)n1 [1′-(4-Trifluoromethoxybenzenesulfonyl)-1′,2′,3′,6′-tetrahydro-[2,4′]-bipyridinyl-6-carboxylic acid 2,2,2-trifluoroethylamide]"
23,250 nM,"O=C(NCCC(F)(F)F)c1cccc(C2=CCN(S(=O)(=O)c3ccc(OC(F)(F)F)cc3)CC2)n1 [1′-(4-Trifluoromethoxybenzenesulfonyl)-1′,2′,3′,6′-tetrahydro-[2,4′]-bipyridinyl-6-carboxylic acid 3,3,3-trifluoropropylamide]"
24,1920 nM,"O=C(Nc1ccc(F)cc1)c1cccc(C2=CCN(S(=O)(=O)c3ccc(OC(F)(F)F)cc3)CC2)n1 [1′-(4-Trifluoromethoxybenzenesulfonyl)-1′,2′,3′,6′-tetrahydro-[2,4′]-bipyridinyl-6-carboxylic acid 4-fluorophenylamide]"
25,290 nM,"O=C(NC1CC1)c1cccc(C2=CCN(S(=O)(=O)c3ccc(OC(F)(F)F)cc3)CC2)n1 [1′-(4-Trifluoromethoxybenzenesulfonyl)-1′,2′,3′,6′-tetrahydro-[2,4′]bipyridinyl-6-carboxylic acid cyclopropylamide]"
26,960 nM,"O=C(NCC(F)(F)F)c1ncccc1C1=CCN(S(=O)(=O)c2ccc(OC(F)(F)F)cc2)CC1 [1′-(4-Trifluoromethoxybenzenesulfonyl)-1′,2′,3′,6′-tetrahydro-[3,4′]bipyridinyl-2-carboxylic acid 2,2,2-trifluoroethylamide]"
27,940 nM,"O=C(NCCC(F)(F)F)c1ncccc1C1=CCN(S(=O)(=O)c2ccc(OC(F)(F)F)cc2)CC1 [1′-(4-Trifluoromethoxybenzenesulfonyl)-1′,2′,3′,6′-tetrahydro-[3,4′]bipyridinyl-2-carboxylic acid 3,3,3-trifluoropropylamide]"
28,690 nM,"O=C(NCC1CC1)c1ncccc1C1=CCN(S(=O)(=O)c2ccc(OC(F)(F)F)cc2)CC1 [1′-(4-Trifluoromethoxybenzenesulfonyl)-1′,2′,3′,6′-tetrahydro-[3,4′]bipyridinyl-2-carboxylic acid cyclopropylmethylamide]"
29,110 nM,"O=C(NC1CC1)c1cccc(C2=CCN(S(=O)(=O)c3ccc(C(F)(F)F)cc3)CC2)n1 [1′-(4-Trifluoromethylbenzenesulfonyl)-1′,2′,3′,6′-tetrahydro-[2,4′]bipyridinyl-6-carboxylic acid cyclopropylamide]"
